Results reported in patent US9315513B2, “Benzimidazole derivatives and their pharmaceutical compositions and uses” (XUANZHU PHARMA CO., LTD., priority 2010, dated 2016).

Key:
gastric acid secretion = settings: cited from earlier work
gastric acid = settings: cited from earlier work
[1] = system: gastric acid in pylorus ligated rats; test: Inhibition effects on gastric acid in pylorus ligated rats; format: in vivo, Wistar rats; settings: 20 mg/kg, in comparison with the solvent group
Experimental: Experimental animals: six-week old clean Wistar rats, male, 140-180 g.
Experimental samples: part of the compounds of the present invention, which structural formula and chemical name are shown in Table 1. […] Before test, these compounds were dissolved with physiological saline.
Pylorus was ligated by passing a suture beneath gastric pylorus, the drugs were immediately administered through duodenum, in which the solvent group was administered with physiological saline in 2 mL/kg, […] The animals were executed after 6 h, laparotomized, esophagus was ligated near to diaphragmatic muscle, whole stomach was taken out, washed to remove blood, stomach contents were poured out, the acidity degree of gastric acid was tested with pH test paper, the stomach contents was then centrifuged at 3000 rpm for 10 min. The volume of the supernatant was metered, and 1 mL of the supernatant was titrated with 0.01 mol/L NaOH solution, phenolphthalein was used as indicator, the volume of NaOH was recorded, and the total acidity degree and total acid output of gastric juice were calculated. Gastric juice total acidity degree (mmol/L)=consumed volume of NaOH solution (mL)*0.01 mol/L (NaOH concentration)/1 mL (supernatant volume)*1000; 1 h total acid output (mmol/h)=total acidity degree (mmol/L)*gastric juice volume (mL)/6 h/1000.

[2] = system: reflux esophagitis in rats; test: Effects on reflux esophagitis in rats; format: in vivo, Wistar rats; settings: 20 mg/kg, in comparison with the model group
Experimental: The rats were etherized, laparotomized, pylorus ligated, and ligated at the part between glandular stomach and rumen. After ligation, the drugs were immediately administered through duodenum, in which the groups of the test samples were administered with test samples in 20 mg/kg, the model group was administered with the same volume of solvent, and the abdomens were then closed. The rats were released to the fasting cage, subjected to fasting and water deprivation for 5 h and then executed by air embolism. The stomach and esophagus were taken out together, fixed with 1% formaldehyde in esophagus for 1 h, and then the injury of esophagus was observed.

[3] = In vivo pharmacokinetic test in rats; design: species or system Wistar rats; settings: rat, in vivo
Experimental: Experimental animals: male Wistar rats, 6 rats/compound, body weight 180-220 g, purchased from Shandong University, certificate no.: SCXK ( ? ) 20090001.
Experimental samples: Compound 1, Compound 29 and Compound 30 of the present invention, each of them is prepared according to the methods of the above examples, and dissolved in physiological saline before test.
Administration: as for intravenous push (I.V), Compound 1, Compound 29, Compound 30 were administered in a dose of 5 mg/kg, and a volume of 2 mL/kg; as for intragastric administration (P.O), Compound 1, Compound 29, Compound 30 were administered in a dose of 5 mg/kg, and a volume of 2 mL/kg. The rats were fasted without water deprivation for […] administration, and fed after 4 hours from the administration.
Blood collection: 0 h, 0.083 h, 0.25 h, 0.5 h, 1 h, 2 h, 4 h, 8 h, 24 h, at each time point, about 150 μL of whole blood was collected, centrifuged at 4° C. and 8000 rpm for 6 min using a low-temperature high-speed centrifuge, the separated plasma was frozen and stored at −80° C. in a refrigerator.
Analysis of plasma samples: as for Compound 1, Compound 29, Compound 30, 50 μL of plasma was taken, added with 120 μL internal standard solution (Tolbutamide, 5 ng/mL MeOH solution), subjected to 1500 rpm vortex for 2 min, then centrifuged at 14000 rpm for 5 min, the supernatant was collected, and analyzed by using LC-MS/MS. Calculation formula: absolute bioavailability F %=[AUC]INF(PO)*Dose(IV)/[AUC]INF(IV)*Dose(PO)
Wherein, AUCINF represents area under drug-time curve0→∞; Cmax represents peak drug concentration in blood; Tmax represents a time for reaching peak drug concentration in blood; F % represents absolute bioavailability; CL represents clearance rate; Vss represents apparent volume of distribution; T1/2 represents half-life period.

SMILES	Activity against gastric acid secretion in vitro relative to Omeprazole (gastric acid secretion)	Time to achieve the maximum acid inhibition effect (gastric acid) [min]	Duration of action (gastric acid; compared with Omeprazole)	Inhibition effect on the gastric acid secretion in pylorus ligated rats (conclusion) [1]	Protection effect on reflux esophagitis in rats (conclusion) [2]	In vivo pharmacokinetic properties (conclusion) [3]
COCCCOc1ccnc(C[S+]([O-])c2nc3ccccc3[nH]2)c1C (stereo not drawn) [Rabeprazole]	2-10 times	≤ 5	shorter than that of Omeprazole	–	–	–
COCCCOc1ccnc(C[S+]([O-])c2nc3cc4c(cc3[nH]2)OCC4)c1C (stereo not drawn) [Compound 1, 2-[[4-(3-methoxylpropoxy)-3-methylpyridin-2-yl]methylsulfinyl]-6,7-dihydro-3H-benzofuro[5,6-d]imidazole]	–	–	–	significant inhibition effect	good protection effects on esophagus	good in vivo pharmacokinetic properties
